Test results as given in BindingDB's records for doi:10.1016/j.bmc.2007.04.026 (University of Ferrara, 2007).
Where a SMILES comes first, the peptide text is derived from it. [ ]: non-standard residue; d: D form. ξ: configuration not given here. Phe(4-F) = N[C@@H](Cc1ccc(F)cc1)C(=O)O; Aib = CC(C)(N)C(=O)O; ξDap = NCC(N)C(=O)O

Columns and labels:
Nociceptin receptor [1] = molecular target: Nociceptin receptor (Rattus norvegicus, UniProt P35370); assay: Antagonist activity at NOP receptor in Sprague-Dawley rat vas deferens assessed as effect on electrically stimulated contractions
Nociceptin receptor [2] = molecular target: Nociceptin receptor (Mus musculus, UniProt P35377); assay: Antagonist activity at NOP receptor in Swiss mouse vas deferens […]
Nociceptin receptor [3] = molecular target: Nociceptin receptor (Cavia porcellus, UniProt P47748); assay: Antagonist activity at NOP receptor in Albino guinea pig ileum assessed as effect on electrically stimulated contractions
Chain of Nociceptin receptor (Cavia porcellus, UniProt P47748) (P47748 whole entry): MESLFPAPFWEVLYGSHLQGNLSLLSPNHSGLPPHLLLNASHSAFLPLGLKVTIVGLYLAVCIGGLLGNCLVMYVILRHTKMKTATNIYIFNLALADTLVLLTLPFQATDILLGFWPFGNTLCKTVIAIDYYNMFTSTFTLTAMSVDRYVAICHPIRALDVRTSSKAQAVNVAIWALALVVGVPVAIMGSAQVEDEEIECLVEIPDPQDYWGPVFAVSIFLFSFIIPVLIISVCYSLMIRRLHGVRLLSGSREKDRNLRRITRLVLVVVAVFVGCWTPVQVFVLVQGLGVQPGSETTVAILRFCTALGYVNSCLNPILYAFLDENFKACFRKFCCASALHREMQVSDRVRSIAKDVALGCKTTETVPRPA

Chain of Nociceptin receptor (Mus musculus, UniProt P35377) (P35377 whole entry): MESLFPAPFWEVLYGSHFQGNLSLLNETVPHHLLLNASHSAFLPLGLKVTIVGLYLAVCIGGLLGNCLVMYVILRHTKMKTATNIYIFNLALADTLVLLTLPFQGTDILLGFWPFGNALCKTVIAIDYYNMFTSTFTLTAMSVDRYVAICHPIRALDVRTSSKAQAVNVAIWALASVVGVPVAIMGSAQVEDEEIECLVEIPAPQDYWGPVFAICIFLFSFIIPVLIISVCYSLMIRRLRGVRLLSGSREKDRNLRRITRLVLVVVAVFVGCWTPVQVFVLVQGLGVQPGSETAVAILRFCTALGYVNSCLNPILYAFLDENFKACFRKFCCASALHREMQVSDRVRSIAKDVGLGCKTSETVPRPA
Chain of Nociceptin receptor (Rattus norvegicus, UniProt P35370) (P35370 whole entry): as the sequence (P35377 whole entry) above, with F9Y, A335S counted along it

SMILES: C[C@H](NC(=O)[C@H](CO)NC(=O)[C@H](CCCCN)NC(=O)[C@H](CCCN=C(N)N)NC(=O)C(C)(C)NC(=O)CNC(=O)[C@@H](NC(=O)[C@H](Cc1ccc(F)cc1)NC(=O)CNC(=O)C(CN)NC(=O)[C@@H](N)Cc1ccccc1)[C@@H](C)O)C(=O)N[C@@H](CCCN=C(N)N)C(=O)N[C@@H](CCCCN)C(=O)N[C@@H](CCCN=C(N)N)C(=O)N[C@@H](CCCCN)C(=O)N[C@@H](CC(N)=O)C(=O)N[C@@H](CCC(N)=O)C(N)=O (stereo partly drawn) (H-F[ξDap]G[Phe(4-F)]TG[Aib]RKSARKRKNQ-NH2)
- Kd (Nociceptin receptor [1]): 603 pM
- Kd (Nociceptin receptor [2]): 794 pM
- Kd (Nociceptin receptor [3]): 316 pM
